Experiment in all cases: Fluo-4 Ca2+ influx through cAMP-gated CNG channel in stable HEK293 line
Assay [1] deals with T1, TAAR13c (Danio rerio, UniProt Q5QNP2).
T1 sequence (Q5QNP2 1-341): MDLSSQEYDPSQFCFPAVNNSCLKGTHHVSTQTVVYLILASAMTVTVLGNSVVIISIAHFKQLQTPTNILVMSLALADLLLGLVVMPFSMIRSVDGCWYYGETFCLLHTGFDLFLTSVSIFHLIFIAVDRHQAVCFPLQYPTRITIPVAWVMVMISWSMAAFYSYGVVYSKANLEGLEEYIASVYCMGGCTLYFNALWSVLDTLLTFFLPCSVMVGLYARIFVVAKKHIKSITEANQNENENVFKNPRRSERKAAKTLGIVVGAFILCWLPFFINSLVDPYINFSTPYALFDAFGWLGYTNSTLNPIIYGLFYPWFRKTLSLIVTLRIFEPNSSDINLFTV
The class given is cell-based. The text has this: (§1) Fluo-4 Ca2+ influx through cAMP-gated CNG channel in stable HEK293 line on TAAR13c

Assay [2] has as its target T2, TAAR13c (Danio rerio, UniProt Q5QNP2, D279A).
T2 sequence (Q5QNP2 1-341 D279A): T1 sequence (Q5QNP2 1-341) with D279A
The class given is cell-based.
Source text: as §1

Assay [3] deals with T3, TAAR13c (Danio rerio, UniProt Q5QNP2, D279E).
T3 sequence (Q5QNP2 1-341 D279E): T1 sequence (Q5QNP2 1-341) with D279E
The class given is cell-based.
Source text: as §1

The target in assay [4] is T4, TAAR13c (Danio rerio, UniProt Q5QNP2, D279N).
T4 sequence (Q5QNP2 1-341 D279N): T1 sequence (Q5QNP2 1-341) with D279N
The class given is cell-based.
Source text: as §1

Assay [5] concerns the target T5, TAAR13c (Danio rerio, UniProt Q5QNP2, D78E).
T5 sequence (Q5QNP2 1-341 D78E): T1 sequence (Q5QNP2 1-341) with D78E
The class given is cell-based.
Source text: as §1

Assay [6] addresses T6, TAAR13c (Danio rerio, UniProt Q5QNP2, W296G).
T6 sequence (Q5QNP2 1-341 W296G): T1 sequence (Q5QNP2 1-341) with W296G
The class given is cell-based. As to conditions: read-out: EC50 (μM, mean±SEM) / cad.
Source text: as §1

Assay [7] concerns the target T7, TAAR13c (Danio rerio, UniProt Q5QNP2, W296Y).
T7 sequence (Q5QNP2 1-341 W296Y): T1 sequence (Q5QNP2 1-341) with W296Y
The class given is cell-based.
Source text: as §1

Assay [8] deals with T8, TAAR13c (Danio rerio, UniProt Q5QNP2, W296F).
T8 sequence (Q5QNP2 1-341 W296F): T1 sequence (Q5QNP2 1-341) with W296F
The class given is cell-based, Homo sapiens.
Source text: as §1

[9] abbreviates: read-out: EC50 (μM, mean±SEM) / cad.
Setting [10] is: read-out: EC50 (μM, mean±SEM) / put.

Changes are numbered by the printed parent chain. Read-outs that look alike come from different tables or passages of the source.

Consider `NCCCCCN` [cadaverine], for which the EC50 in assay [1] (setting [9]) was 15.2 ± 2.2 µM; in assay [2] (setting [9]) it was 2.1 ± 1 µM; in assay [3] (setting [9]), 0.72 ± 0.24 µM; in assay [4] (setting [9]), 1.1 ± 0.8 µM; in assay [5] (setting [9]), 64 ± 28 µM; in assay [6], 55 ± 48 µM. The figures for the EC50 in assay [7] (setting [9]) and in assay [8] (setting [9]) were 28 ± 8 µM and 42 ± 6 µM, respectively.

For `NCCCCN` [putrescine], the EC50 in assay [1] (setting [10]) is greater than 1000 µM; in assay [2] (setting [10]), 31 ± 13 µM; in assay [3] (setting [10]), 10 ± 4 µM; in assay [4] (setting [10]), 7.3 ± 3.6 µM; in assay [5] (setting [10]), greater than 1000 µM; in assay [7] (setting [10]) it was greater than 1000 µM. The EC50 in assay [8] (setting [10]) was greater than 1000 µM.

Values taken from article PMC4914996, “Elimination of a ligand gating site generates a supersensitive olfactory receptor” (Scientific Reports, 2016).
